Values joined by “and” are separate entries in the source; they are usually repeats but may differ in a detail not shown here. Equal entries are not always repeated. Toxic doses and inconclusive results are not listed. How the source made its calls: active means survival T/C of 150% or more; inactive means T/C below 125% in these data.
Tested on: P388 leukemia ip, CD2F1 mice, survival T/C
Experiment: NCI In Vivo Anticancer Drug Screen. Data for tumor model P388 Leukemia (intraperitoneal) in CD2F1 (CDF1) mice
Conditions: endpoint: median survival time, higher = longer survival
How it was run: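 Mice carrying the transplanted tumor received test compound or vehicle. Survival was recorded in each group, and the value is the treated-group measurement divided by that of the vehicle-treated control group.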

[1] = dose: 50.0 mg/kg/injection, schedule: Q01DX009 (ip), vehicle: saline with Tween-80
[2] = dose: 100.0 mg/kg/injection, schedule: Q01DX009 (ip), vehicle: saline with Tween-80
[3] = dose: 200.0 mg/kg/injection, schedule: Q01DX009 (ip), vehicle: saline with Tween-80
[4] = dose: 50.0 mg/kg/injection, schedule: Q01DX009 (ip), vehicle: Klucel (hydroxypropylcellulose) (HPC)
[5] = dose: 100.0 mg/kg/injection, schedule: Q01DX009 (ip), vehicle: Klucel (hydroxypropylcellulose) (HPC)
[6] = dose: 200.0 mg/kg/injection, schedule: Q01DX009 (ip), vehicle: Klucel (hydroxypropylcellulose) (HPC)
[7] = dose: 60.0 mg/kg/injection, schedule: Q01DX005 (ip), vehicle: saline with Tween-80
[8] = dose: 120.0 mg/kg/injection, schedule: Q01DX005 (ip), vehicle: saline with Tween-80
[9] = dose: 240.0 mg/kg/injection, schedule: Q01DX005 (ip), vehicle: saline with Tween-80
[10] = dose: 50.0 mg/kg/injection, schedule: Q01DX005 (ip), vehicle: Klucel (hydroxypropylcellulose) (HPC)
[11] = dose: 50.0 mg/kg/injection, schedule: Q01DX005 (ip), vehicle: saline with Tween-80
[12] = dose: 100.0 mg/kg/injection, schedule: Q01DX005 (ip), vehicle: saline with Tween-80
[13] = dose: 200.0 mg/kg/injection, schedule: Q01DX005 (ip), vehicle: saline with Tween-80
[14] = dose: 25.0 mg/kg/injection, schedule: Q01DX009 (ip), vehicle: saline
[15] = dose: 50.0 mg/kg/injection, schedule: Q01DX009 (ip), vehicle: saline
[16] = dose: 12.5 mg/kg/injection, schedule: Q01DX009 (ip), vehicle: saline with Tween-80
[17] = dose: 25.0 mg/kg/injection, schedule: Q01DX009 (ip), vehicle: saline with Tween-80
[18] = dose: 100.0 mg/kg/injection, schedule: Q01DX009 (ip), vehicle: saline

Measured: T/C

CC(C)(C)S(=O)(=O)C(C)(C)C
inactive: dose: 25.0 mg/kg/injection, schedule: Q01DX001 (ip), vehicle: saline with Tween-80 109 % of control | dose: 50.0 mg/kg/injection, schedule: Q01DX001 (ip), vehicle: saline with Tween-80 111 % of control | dose: 100.0 mg/kg/injection, schedule: Q01DX001 (ip), vehicle: saline with Tween-80 95 % of control | dose: 200.0 mg/kg/injection, schedule: Q01DX001 (ip), vehicle: saline with Tween-80 100 % of control

Cc1sc2ccccc2[n+]1CCC(=O)O
inactive: [1] 100 % of control | [2] 100 % of control | [3] 98 % of control | dose: 400.0 mg/kg/injection, schedule: Q01DX009 (ip), vehicle: saline with Tween-80 98 % of control

COc1nc(C(O)C2OC(C)(C)OCC2O)[nH]c1C#N (centres undefined)
inactive: [4] 106 % of control | [5] 102 % of control and 91 % of control | [6] 103 % of control and 110 % of control

CCCOc1ccc2c(NCCCCNc3c4ccccc4nc4cc(OCCC)ccc34)c3ccccc3nc2c1
inactive: dose: 0.62 mg/kg/injection, schedule: Q01DX009 (ip), vehicle: other 98 % of control | dose: 1.25 mg/kg/injection, schedule: Q01DX009 (ip), vehicle: other 109 % of control | dose: 2.5 mg/kg/injection, schedule: Q01DX009 (ip), vehicle: other 98 % of control | dose: 5.0 mg/kg/injection, schedule: Q01DX009 (ip), vehicle: other 107 % of control | dose: 10.0 mg/kg/injection, schedule: Q01DX009 (ip), vehicle: other 107 % of control

COc1cc2c(cc1CCCc1cc(OC)c(OC)c(OC)c1)OCO2
inactive: [7] 92 % of control | [8] 89 % of control | [9] 86 % of control

Nc1[nH]c(=S)[nH]c(=O)c1NS(=O)(=O)c1cccc([N+](=O)[O-])c1
inactive: dose: 30.0 mg/kg/injection, schedule: Q01DX005 (ip), vehicle: Klucel (hydroxypropylcellulose) (HPC) 103 % of control and 105 % of control | dose: 60.0 mg/kg/injection, schedule: Q01DX005 (ip), vehicle: Klucel (hydroxypropylcellulose) (HPC) 100 % of control and 97 % of control | dose: 120.0 mg/kg/injection, schedule: Q01DX005 (ip), vehicle: Klucel (hydroxypropylcellulose) (HPC) 98 % of control and 97 % of control | dose: 240.0 mg/kg/injection, schedule: Q01DX005 (ip), vehicle: Klucel (hydroxypropylcellulose) (HPC) 99 % of control and 106 % of control

NC(=O)N/N=C/Cn1ccc(=O)[nH]c1=O
inactive: [10] 99 % of control | dose: 100.0 mg/kg/injection, schedule: Q01DX005 (ip), vehicle: Klucel (hydroxypropylcellulose) (HPC) 97 % of control | dose: 200.0 mg/kg/injection, schedule: Q01DX005 (ip), vehicle: Klucel (hydroxypropylcellulose) (HPC) 90 % of control

COc1nc(Nc2ccccc2OC)nc(OC)n1
inactive: [4] 101 % of control | [5] 99 % of control | [6] 100 % of control

Cn1c(=O)nc2n(C)c3ccccc3cc-2c1=O
inactive: [1] 116 % of control | [2] 116 % of control | [3] 113 % of control

CC1(C)SC=C2C1=CSC2(C)C
inactive: [11] 101 % of control | [12] 96 % of control | [13] 95 % of control

C=CC1(O)Cc2cc(C(C)C)c(OC)c(OC)c21 (centres undefined)
inactive: [11] 106 % of control | [12] 119 % of control | [13] 109 % of control

OCC1(c2ccncc2)OCCO1
inactive: dose: 50.0 mg/kg/injection, schedule: Q01DX005 (ip), vehicle: saline 101 % of control | dose: 100.0 mg/kg/injection, schedule: Q01DX005 (ip), vehicle: saline 104 % of control | dose: 200.0 mg/kg/injection, schedule: Q01DX005 (ip), vehicle: saline 92 % of control

CC1=C(C)C[C@](C)(S(=O)(=O)N2CCOCC2)S(=O)C1 (some centres undefined)
inactive: dose: 60.0 mg/kg/injection, schedule: Q01DX005 (ip), vehicle: saline 105 % of control | dose: 120.0 mg/kg/injection, schedule: Q01DX005 (ip), vehicle: saline 98 % of control | dose: 240.0 mg/kg/injection, schedule: Q01DX005 (ip), vehicle: saline 111 % of control

CN=C(NC(C)C)c1ccccc1
inactive: dose: 12.5 mg/kg/injection, schedule: Q01DX009 (ip), vehicle: saline 91 % of control | [14] 88 % of control | [15] 104 % of control and 88 % of control

O=C(NC1c2ccccc2CCc2ccccc21)C(F)(F)F
inactive: [16] 86 % of control | [17] 117 % of control | [1] 90 % of control | [2] 86 % of control | [3] 94 % of control

Cn1nc(-c2ccccc2)c(-c2ccccc2)c(C#N)c1=O
inactive: dose: 25.0 mg/kg/injection, schedule: Q04DX002 (ip), vehicle: distilled water + Tween-80 109 % of control | dose: 50.0 mg/kg/injection, schedule: Q04DX002 (ip), vehicle: distilled water + Tween-80 102 % of control | dose: 100.0 mg/kg/injection, schedule: Q04DX002 (ip), vehicle: distilled water + Tween-80 101 % of control | dose: 200.0 mg/kg/injection, schedule: Q04DX002 (ip), vehicle: distilled water + Tween-80 100 % of control

CN(C)CCC(=O)c1cccc(O)c1
inactive: [14] 107 % of control | [15] 98 % of control and 105 % of control | [18] 98 % of control and 109 % of control | dose: 200.0 mg/kg/injection, schedule: Q01DX009 (ip), vehicle: saline 97 % of control

O=C1CCN(C(=O)C2=CC(=O)OC2)C1
inactive: dose: 12.5 mg/kg/injection, schedule: Q01DX005 (ip), vehicle: Klucel (hydroxypropylcellulose) (HPC) 100 % of control | dose: 25.0 mg/kg/injection, schedule: Q01DX005 (ip), vehicle: Klucel (hydroxypropylcellulose) (HPC) 93 % of control | [10] 100 % of control

C[N+](C)(C)N
inactive: [14] 102 % of control | [15] 100 % of control | [18] 100 % of control

CN(C)CCCN1c2ccccc2Cc2ccccc21
inactive: dose: 12.5 mg/kg/injection, schedule: Q01DX005 (ip), vehicle: saline with Tween-80 111 % of control | dose: 25.0 mg/kg/injection, schedule: Q01DX005 (ip), vehicle: saline with Tween-80 108 % of control | [11] 100 % of control and 111 % of control | [12] 114 % of control

CC(C)CC(=O)CC(=O)C(C)(C)C.CC(C)CC(=O)CC(=O)C(C)(C)C.CC(C)CC(=O)CC(=O)C(C)(C)C.[Cr]
inactive: dose: 50.0 mg/kg/injection, schedule: Q01DX009 (ip), vehicle: distilled water + alcohol 97 % of control | dose: 100.0 mg/kg/injection, schedule: Q01DX009 (ip), vehicle: distilled water + alcohol 107 % of control | dose: 200.0 mg/kg/injection, schedule: Q01DX009 (ip), vehicle: distilled water + alcohol 103 % of control

CCCCC[CH2][Ge]([CH2]CCCCC)([CH2]CCCCC)[O]C(C)=O
inactive: dose: 50.0 mg/kg/injection, schedule: Q01DX001 (ip), vehicle: Klucel (hydroxypropylcellulose) (HPC) 100 % of control and 107 % of control | dose: 100.0 mg/kg/injection, schedule: Q01DX001 (ip), vehicle: Klucel (hydroxypropylcellulose) (HPC) 101 % of control and 106 % of control | dose: 200.0 mg/kg/injection, schedule: Q01DX001 (ip), vehicle: Klucel (hydroxypropylcellulose) (HPC) 104 % of control and 115 % of control | dose: 400.0 mg/kg/injection, schedule: Q01DX001 (ip), vehicle: Klucel (hydroxypropylcellulose) (HPC) 120 % of control

CC(CN(C)C)C(=O)c1ccccc1 (centres undefined)
inactive: dose: 6.25 mg/kg/injection, schedule: Q01DX009 (ip), vehicle: saline with Tween-80 113 % of control | [16] 112 % of control | [17] 120 % of control | [1] 114 % of control | [15] 99 % of control | [2] 117 % of control | [18] 99 % of control

O=C(Nc1cccc2ccccc12)NN1C(=O)CSC1=S
inactive: [1] 90 % of control | [2] 93 % of control | [3] 91 % of control

Cc1ncc(C(O)c2ccc(N(C)C)cc2)n1Cc1ccccc1 (centres undefined)
inactive: [7] 98 % of control | [8] 95 % of control | [9] 95 % of control

C[C@H]1CCC2=C(C1)NC(N)=NC2(C)C
inactive: dose: 12.5 mg/kg/injection, schedule: Q04DX002 (ip), vehicle: saline with Tween-80 93 % of control | dose: 25.0 mg/kg/injection, schedule: Q04DX002 (ip), vehicle: saline with Tween-80 93 % of control | dose: 50.0 mg/kg/injection, schedule: Q04DX002 (ip), vehicle: saline with Tween-80 98 % of control

CC1(CCl)Nc2ccccc2C(=O)N1c1ccccc1 (centres undefined)
inactive: [1] 99 % of control | [2] 97 % of control | [3] 88 % of control

CCOC(=O)C1(n2[nH]c(=O)n(-c3ccccc3)c2=O)CC(C)(C)OC1=O (centres undefined)
inactive: [4] 106 % of control | [5] 98 % of control | [6] 98 % of control

From PubChem BioAssay AID330 (DTP/NCI, 2004)
